Experimental findings from ChEMBL document CHEMBL1132042, “Macrocyclic hydroxamate inhibitors of matrix metalloproteinases and TNF-alpha production” (Bioorg Med Chem Lett, 1999) are described below.

The target of one test is T1, Interstitial collagenase (Homo sapiens, UniProt P03956).
T1 sequence (P03956 whole entry): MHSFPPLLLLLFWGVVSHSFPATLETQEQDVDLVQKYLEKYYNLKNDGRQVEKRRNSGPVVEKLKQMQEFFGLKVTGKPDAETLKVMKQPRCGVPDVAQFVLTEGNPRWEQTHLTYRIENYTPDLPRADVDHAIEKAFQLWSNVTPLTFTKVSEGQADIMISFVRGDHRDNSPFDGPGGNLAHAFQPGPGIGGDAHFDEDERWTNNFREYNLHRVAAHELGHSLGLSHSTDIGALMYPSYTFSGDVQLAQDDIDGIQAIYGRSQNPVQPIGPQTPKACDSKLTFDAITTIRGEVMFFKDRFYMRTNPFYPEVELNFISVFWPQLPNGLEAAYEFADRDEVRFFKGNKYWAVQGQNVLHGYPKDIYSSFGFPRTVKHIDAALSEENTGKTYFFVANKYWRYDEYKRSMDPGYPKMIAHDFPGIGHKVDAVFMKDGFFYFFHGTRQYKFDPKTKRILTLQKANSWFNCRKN
The experiment in a line: Inhibition of MMP-1 (human fibroblast collagenase).

Test [1] has as its target Matrix metalloproteinase-9 (Homo sapiens, UniProt P14780). The experiment in a line: Inhibition of MMP-9 (matrix metalloprotease-9, gelatinase B).
In another test the target is Stromelysin-1 (Homo sapiens, UniProt P08254). The experiment in a line: Inhibition of MMP-3 (human fibroblast stromelysin).
The species named for another test is Homo sapiens. The experiment in a line: Compound was tested for its ability to suppress the release of TNF-alpha (TNF-WBA) in human whole blood after stimulation with LPS. Type of test: functional, organism-based.

Sequence of Matrix metalloproteinase-9 (P14780 whole entry): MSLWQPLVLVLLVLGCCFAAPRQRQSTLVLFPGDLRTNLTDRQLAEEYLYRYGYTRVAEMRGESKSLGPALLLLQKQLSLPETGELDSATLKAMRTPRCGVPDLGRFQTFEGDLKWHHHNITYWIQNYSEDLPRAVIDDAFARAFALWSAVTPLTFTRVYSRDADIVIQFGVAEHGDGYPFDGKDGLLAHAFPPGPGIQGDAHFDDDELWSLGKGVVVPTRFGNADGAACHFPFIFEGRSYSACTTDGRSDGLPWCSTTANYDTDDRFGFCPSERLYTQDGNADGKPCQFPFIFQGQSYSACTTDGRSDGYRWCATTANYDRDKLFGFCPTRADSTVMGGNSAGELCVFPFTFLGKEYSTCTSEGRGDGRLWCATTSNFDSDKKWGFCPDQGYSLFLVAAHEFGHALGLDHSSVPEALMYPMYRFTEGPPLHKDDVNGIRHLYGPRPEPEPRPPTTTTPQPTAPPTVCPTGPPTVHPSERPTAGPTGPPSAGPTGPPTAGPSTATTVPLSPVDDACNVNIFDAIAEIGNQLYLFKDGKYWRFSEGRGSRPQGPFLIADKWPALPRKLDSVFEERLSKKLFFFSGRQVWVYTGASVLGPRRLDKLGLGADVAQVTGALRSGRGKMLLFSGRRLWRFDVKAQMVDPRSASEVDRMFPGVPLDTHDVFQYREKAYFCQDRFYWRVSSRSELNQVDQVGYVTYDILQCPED
Sequence of Stromelysin-1 (P08254 whole entry): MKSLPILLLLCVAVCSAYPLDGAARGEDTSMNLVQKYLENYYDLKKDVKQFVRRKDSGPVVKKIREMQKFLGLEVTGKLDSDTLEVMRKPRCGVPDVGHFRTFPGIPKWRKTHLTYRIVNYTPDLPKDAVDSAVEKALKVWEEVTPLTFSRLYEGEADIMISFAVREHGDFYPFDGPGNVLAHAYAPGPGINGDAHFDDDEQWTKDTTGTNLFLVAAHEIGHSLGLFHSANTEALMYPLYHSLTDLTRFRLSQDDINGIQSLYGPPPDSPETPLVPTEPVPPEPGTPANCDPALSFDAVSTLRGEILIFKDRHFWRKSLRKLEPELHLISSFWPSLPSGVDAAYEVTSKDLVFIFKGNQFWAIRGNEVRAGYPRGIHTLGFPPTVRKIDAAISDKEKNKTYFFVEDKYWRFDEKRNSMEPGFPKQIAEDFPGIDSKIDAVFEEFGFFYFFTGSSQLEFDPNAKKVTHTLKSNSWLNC

One may read the Ki as a measure of affinity in units of concentration, obtained from inhibition or displacement. High values mean weaker binding, low ones tighter binding. Broadly, the IC50 is the concentration needed to halve the response being measured. High values mean lower potency, low ones higher potency. As to `CNC(=O)[C@@H]1CCCCN(C(=O)OC(C)(C)C)CCC[C@H](C(=O)NO)[C@@H](CC(C)C)C(=O)N1`, the results for the Ki (at Interstitial collagenase; in test [1]; at Stromelysin-1) were less than 1 nM, less than 1 nM and 3 nM, respectively. This molecule also displayed an IC50 in the test listed under Homo sapiens of 1400 nM.

As for `CNC(=O)[C@@H]1CCCCN(S(=O)(=O)c2ccc(N)cc2)CCC[C@H](C(=O)NO)[C@@H](CC(C)C)C(=O)N1`, the Ki is less than 1 nM on Interstitial collagenase, 1.6 nM in test [1] and 99 nM on Stromelysin-1. In the test filed under Homo sapiens, this molecule showed an IC50 of 950 nM.

With `CNC(=O)[C@@H]1CCCCN(S(=O)(=O)c2ccccc2)CCC[C@H](C(=O)NO)[C@@H](CC(C)C)C(=O)N1`, the figures for the Ki (on Interstitial collagenase; in test [1]; at Stromelysin-1) were less than 1 nM, less than 1 nM and 3.4 nM, respectively. Besides, half-maximal inhibition in the test listed under Homo sapiens (IC50) required 1300 nM.

Consider `CNC(=O)[C@@H]1CCCCN(S(=O)(=O)c2c(C)cc(C)cc2C)CCC[C@H](C(=O)NO)[C@@H](CC(C)C)C(=O)N1`, for which the Ki at Interstitial collagenase is 2.3 nM; in test [1], less than 1 nM; on Stromelysin-1, 15 nM. The same molecule registered an IC50 in the test listed under Homo sapiens of 1600 nM.

As for `CNC(=O)[C@@H]1CCCCN(S(=O)(=O)c2cn(C)cn2)CCC[C@H](C(=O)NO)[C@@H](CC(C)C)C(=O)N1`, the Ki on Interstitial collagenase was less than 1 nM; in test [1], 2.7 nM; at Stromelysin-1, 12 nM. In the test filed under Homo sapiens, this molecule came in with an IC50 of 1400 nM.

Turning to `CNC(=O)[C@@H]1CCCCN(S(=O)(=O)C(F)(F)F)CCC[C@H](C(=O)NO)[C@@H](CC(C)C)C(=O)N1`, the inhibition constant Ki is 4 nM at Interstitial collagenase, less than 1 nM in test [1] and 118 nM on Stromelysin-1. In the test listed under Homo sapiens, this molecule had an IC50 of 1300 nM.

As for `CNC(=O)[C@@H]1CCCCNCCC[C@H](C(=O)NO)[C@@H](CC(C)C)C(=O)N1`, the Ki at Interstitial collagenase was less than 1 nM; in test [1], 12.8 nM. Besides, in the test filed under Homo sapiens, the midpoint of inhibition, the IC50, lay at 2700 nM.
